Measured values as given in PubChem BioAssay (NCI).
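Interpolation was linear, between the two tested concentrations surrounding the appropriate level; five concentrations were tested over 48 hours in 96-well plates. TGI denotes the concentration required for complete inhibition of growth.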

What was measured:
Assay in all cases: NCI-60 cell line screen, 48 h
[1] = system: SK-OV-3 ovarian
[2] = system: T-47D breast
[3] = system: MOLT-4 leukemia
[4] = system: SF-268 CNS
[5] = system: CAKI-1 renal
[6] = system: SNB-75 CNS
[7] = system: CCRF-CEM leukemia
[8] = system: MDA-MB-435
[9] = system: 786-0 renal
[10] = system: NCI/ADR-RES ovarian
[11] = system: OVCAR-8 ovarian
[12] = system: HOP-92 NSCLC
[13] = system: RPMI-8226 leukemia
[14] = system: IGROV1 ovarian
[15] = system: NCI-H23 lung
[16] = system: SNB-19 CNS
[17] = system: SK-MEL-5 melanoma
[18] = system: SN12C renal
[19] = system: HCC-2998 colon
[20] = system: DU-145 prostate
[21] = system: HOP-62 NSCLC
[22] = system: SF-295 CNS
[23] = system: NCI-H522 lung
[24] = system: SK-MEL-2 melanoma
[25] = system: MALME-3M melanoma
[26] = system: HCT-15 colon
[27] = system: A498 renal
[28] = system: SK-MEL-28 melanoma
[29] = system: OVCAR-4 ovarian
[30] = system: NCI-H226 lung
[31] = system: A549 NSCLC
[32] = system: OVCAR-3 ovarian
[33] = system: HT29 colon
[34] = system: COLO 205 colon
[35] = system: M14 melanoma
[36] = system: HL-60(TB) leukemia
[37] = system: RXF 393 renal
[38] = system: SF-539 CNS
[39] = system: UO-31 renal
[40] = system: HS 578T breast
[41] = system: U251 CNS
[42] = system: MCF7 breast
[43] = system: OVCAR-5 ovarian
[44] = system: LOX IMVI melanoma
[45] = system: HCT-116 colon
[46] = system: SW-620 colon
[47] = system: UACC-257 melanoma
[48] = system: KM12 colon
[49] = system: PC-3 prostate
[50] = system: TK-10 renal
[51] = system: EKVX NSCLC
[52] = system: MDA-N
[53] = system: K-562 leukemia
[54] = system: MDA-MB-231 breast
[55] = system: ACHN renal
[56] = system: UACC-62 melanoma
[57] = system: SR leukemia
[58] = system: NCI-H460 lung

CCC#CCCCCCCCCC(F)C(=O)O (configuration not stated)
TGI [1]: > 100 µM | TGI [2]: > 100 µM | TGI [3]: > 100 µM | TGI [4]: > 100 µM | TGI [5]: > 100 µM | TGI [6]: > 100 µM | TGI [7]: > 100 µM | TGI [8]: > 100 µM | TGI [9]: > 100 µM | TGI [10]: > 100 µM | TGI [11]: > 100 µM | TGI [12]: > 100 µM | TGI [13]: > 100 µM | TGI [14]: > 100 µM | TGI [15]: > 100 µM | TGI [16]: > 100 µM | TGI [17]: > 100 µM | TGI [18]: > 100 µM | TGI [19]: > 100 µM | TGI [20]: > 100 µM | TGI [21]: > 100 µM | TGI [22]: > 100 µM | TGI [23]: > 100 µM | TGI [24]: > 100 µM | TGI [25]: > 100 µM | TGI [26]: > 100 µM | TGI [27]: > 100 µM | TGI [28]: > 100 µM | TGI [29]: > 100 µM | TGI [30]: > 100 µM | TGI [31]: > 100 µM | TGI [32]: > 100 µM | TGI [33]: > 100 µM | TGI [34]: > 100 µM | TGI [35]: > 100 µM | TGI [36]: > 100 µM | TGI [37]: > 100 µM | TGI [38]: > 100 µM | TGI [39]: > 100 µM | TGI [40]: > 100 µM | TGI [41]: > 100 µM | TGI [42]: > 100 µM | TGI [43]: > 100 µM | TGI [44]: > 100 µM | TGI [45]: > 100 µM | TGI [46]: > 100 µM | TGI [47]: > 100 µM | TGI [48]: > 100 µM | TGI [49]: > 100 µM | TGI [50]: > 100 µM | TGI [51]: > 100 µM | TGI [52]: > 100 µM | TGI [53]: > 100 µM | TGI [54]: > 100 µM | TGI [55]: > 100 µM

CC1=C(C#N)C2C(=C(C)N1)C(N)=Nc1ccccc12 (configuration not stated)
TGI [1]: > 100 µM | TGI [2]: > 100 µM | TGI [3]: > 100 µM | TGI [4]: > 100 µM | TGI [5]: > 100 µM | TGI [6]: 44.1 µM | TGI [7]: > 100 µM | TGI [9]: > 100 µM | TGI [10]: > 100 µM | TGI [11]: > 100 µM | TGI [12]: 62.2 µM | TGI [14]: 95.6 µM | TGI [15]: > 100 µM | TGI [16]: > 100 µM | TGI [17]: > 100 µM | TGI [18]: > 100 µM | TGI [19]: > 100 µM | TGI [20]: > 100 µM | TGI [21]: > 100 µM | TGI [22]: > 100 µM | TGI [23]: > 100 µM | TGI [24]: > 100 µM | TGI [25]: > 100 µM | TGI [26]: > 100 µM | TGI [27]: 97.8 µM | TGI [28]: > 100 µM | TGI [29]: > 100 µM | TGI [30]: 93.8 µM | TGI [31]: > 100 µM | TGI [32]: > 100 µM | TGI [33]: > 100 µM | TGI [34]: > 100 µM | TGI [35]: > 100 µM | TGI [56]: > 100 µM | TGI [36]: 81.6 µM | TGI [37]: > 100 µM | TGI [38]: > 100 µM | TGI [40]: 74.7 µM | TGI [42]: > 100 µM | TGI [43]: > 100 µM | TGI [44]: > 100 µM | TGI [45]: > 100 µM | TGI [46]: > 100 µM | TGI [57]: > 100 µM | TGI [47]: > 100 µM | TGI [48]: > 100 µM | TGI [49]: 70.8 µM | TGI [50]: > 100 µM | TGI [58]: > 100 µM | TGI [51]: 89.4 µM | TGI [52]: > 100 µM | TGI [54]: > 100 µM | TGI [55]: > 100 µM

Cc1c(C(=O)C(=O)c2ccccc2)c(C)c(C(=O)C(=O)c2ccccc2)c(C)c1C(=O)C(=O)c1ccccc1
TGI [1]: > 100 µM | TGI [2]: > 100 µM | TGI [3]: > 100 µM | TGI [4]: > 100 µM | TGI [6]: > 100 µM | TGI [7]: > 100 µM | TGI [8]: > 100 µM | TGI [9]: > 100 µM | TGI [10]: > 100 µM | TGI [11]: > 100 µM | TGI [13]: > 100 µM | TGI [14]: > 100 µM | TGI [16]: > 100 µM | TGI [17]: > 100 µM | TGI [18]: > 100 µM | TGI [19]: > 100 µM | TGI [21]: > 100 µM | TGI [22]: > 100 µM | TGI [23]: > 100 µM | TGI [26]: > 100 µM | TGI [28]: > 100 µM | TGI [29]: > 100 µM | TGI [31]: > 100 µM | TGI [33]: > 100 µM | TGI [34]: > 100 µM | TGI [35]: > 100 µM | TGI [36]: > 100 µM | TGI [38]: > 100 µM | TGI [39]: > 100 µM | TGI [40]: > 100 µM | TGI [41]: > 100 µM | TGI [42]: > 100 µM | TGI [43]: > 100 µM | TGI [45]: > 100 µM | TGI [46]: > 100 µM | TGI [57]: > 100 µM | TGI [47]: > 100 µM | TGI [48]: > 100 µM | TGI [49]: > 100 µM | TGI [50]: > 100 µM | TGI [58]: > 100 µM | TGI [51]: > 100 µM | TGI [52]: > 100 µM | TGI [53]: > 100 µM | TGI [54]: > 100 µM | TGI [55]: > 100 µM

CC1(C)[C@@H](Cn2nnc3c(N)ncnc32)CC[C@@]1(C)CO
TGI [1]: > 100 µM | TGI [2]: > 100 µM | TGI [4]: > 100 µM | TGI [5]: > 100 µM | TGI [6]: > 100 µM | TGI [7]: > 100 µM | TGI [8]: > 100 µM | TGI [9]: > 100 µM | TGI [10]: > 100 µM | TGI [12]: > 100 µM | TGI [13]: > 100 µM | TGI [16]: > 100 µM | TGI [17]: > 100 µM | TGI [18]: > 100 µM | TGI [19]: 29 µM | TGI [20]: > 100 µM | TGI [21]: > 100 µM | TGI [22]: > 100 µM | TGI [24]: > 100 µM | TGI [26]: > 100 µM | TGI [27]: > 100 µM | TGI [28]: > 100 µM | TGI [29]: > 100 µM | TGI [30]: > 100 µM | TGI [31]: > 100 µM | TGI [32]: > 100 µM | TGI [35]: > 100 µM | TGI [56]: > 100 µM | TGI [37]: > 100 µM | TGI [38]: > 100 µM | TGI [39]: > 100 µM | TGI [40]: > 100 µM | TGI [41]: > 100 µM | TGI [42]: > 100 µM | TGI [43]: > 100 µM | TGI [44]: > 100 µM | TGI [45]: > 100 µM | TGI [46]: > 100 µM | TGI [47]: > 100 µM | TGI [48]: > 100 µM | TGI [49]: > 100 µM | TGI [50]: > 100 µM | TGI [51]: > 100 µM | TGI [52]: > 100 µM | TGI [53]: > 100 µM | TGI [54]: > 100 µM | TGI [55]: > 100 µM

CC1CN=C(N(C)C(=O)Nc2ccc(Cl)cc2)S1 (configuration not stated)
TGI [1]: > 100 µM | TGI [2]: 65.6 µM | TGI [3]: 44.1 µM | TGI [4]: > 100 µM | TGI [5]: > 100 µM | TGI [6]: > 100 µM | TGI [9]: > 100 µM | TGI [10]: 37.5 µM | TGI [11]: > 100 µM | TGI [12]: 68.8 µM | TGI [14]: > 100 µM | TGI [15]: > 100 µM | TGI [16]: > 100 µM | TGI [17]: 22 µM | TGI [18]: > 100 µM | TGI [19]: > 100 µM | TGI [20]: > 100 µM | TGI [21]: > 100 µM | TGI [22]: > 100 µM | TGI [24]: 37.3 µM | TGI [25]: > 100 µM | TGI [26]: > 100 µM | TGI [27]: > 100 µM | TGI [28]: 41.8 µM | TGI [29]: > 100 µM | TGI [31]: > 100 µM | TGI [32]: > 100 µM | TGI [33]: > 100 µM | TGI [34]: 80.2 µM | TGI [35]: > 100 µM | TGI [36]: > 100 µM | TGI [38]: 30.8 µM | TGI [39]: 61 µM | TGI [40]: > 100 µM | TGI [41]: > 100 µM | TGI [42]: > 100 µM | TGI [43]: 66.4 µM | TGI [44]: > 100 µM | TGI [45]: > 100 µM | TGI [46]: > 100 µM | TGI [57]: 92.2 µM | TGI [47]: 35.5 µM | TGI [48]: > 100 µM | TGI [49]: > 100 µM | TGI [50]: > 100 µM | TGI [58]: > 100 µM | TGI [51]: > 100 µM | TGI [52]: > 100 µM | TGI [53]: > 100 µM | TGI [54]: > 100 µM | TGI [55]: 95.6 µM
